A short description of this data set: activity coefficient (dimensionless); of the first substance listed, at infinite dilution; xn = mol fraction of the nth substance listed. The following applies: 101.33 kPa, Liquid, Chromatography, x1 = 0.

Numbers after ± are expanded uncertainties.

For `ClCCCl` [1,2-dichloroethane] + CCCCCCCCCC[N+](C)(C)CCCCCCCCCC.F[B-](F)(F)F, the activity coefficient (323 K) came out at 0.616 ± 0.065, the activity coefficient (338 K) was found to be 0.622 ± 0.066 and the activity coefficient (353 K) was determined as 0.682 ± 0.071.
For `ClCCCl` [1,2-dichloroethane] + CCCCCCCCCC[N+](C)(C)CCCCCCCCCC.[O-][Cl+3]([O-])([O-])[O-], the activity coefficient is, setting by setting: (323 K) 0.464 ± 0.052; (338 K) 0.494 ± 0.055; (353 K) 0.482 ± 0.053.
For `C=CCCCCC` [1-heptene] + CCCCCCCCCC[N+](C)(C)CCCCCCCCCC.F[B-](F)(F)F, the activity coefficient (308 K) came to 1.79 ± 0.19, the activity coefficient (323 K) is 1.81 ± 0.19, the activity coefficient (338 K) was 1.83 ± 0.19 and the activity coefficient (353 K) was 2.23 ± 0.23.
The like results for `C=CCCCCC` [1-heptene] + CCCCCCCCCC[N+](C)(C)CCCCCCCCCC.[O-][Cl+3]([O-])([O-])[O-] were, in that order, 2.69 ± 0.28, 1.85 ± 0.19, 2.23 ± 0.23 and 2.15 ± 0.23.
The corresponding values for `C#CCCCCC` [1-heptyne] + CCCCCCCCCC[N+](C)(C)CCCCCCCCCC.F[B-](F)(F)F are 0.892 ± 0.091, 0.893 ± 0.091, 0.894 ± 0.091 and 1.12 ± 0.12.
The like results for `C#CCCCCC` [1-heptyne] + CCCCCCCCCC[N+](C)(C)CCCCCCCCCC.[O-][Cl+3]([O-])([O-])[O-] were, in that order, 1.14 ± 0.12, 1.1 ± 0.11, 1.17 ± 0.12 and 1.18 ± 0.12.
On to `C#CCCCC` [1-hexyne] + CCCCCCCCCC[N+](C)(C)CCCCCCCCCC.F[B-](F)(F)F, for which the activity coefficient was 0.85 ± 0.087 (308 K), 0.838 ± 0.086 (323 K), 0.826 ± 0.085 (338 K) and 0.937 ± 0.096 (353 K).
Turning to `C#CCCCC` [1-hexyne] + CCCCCCCCCC[N+](C)(C)CCCCCCCCCC.[O-][Cl+3]([O-])([O-])[O-], the activity coefficient is, setting by setting: (308 K) 0.732 ± 0.076; (323 K) 0.83 ± 0.085; (338 K) 0.989 ± 0.1; (353 K) 0.969 ± 0.099.
`C=CCCC` [1-pentene] + CCCCCCCCCC[N+](C)(C)CCCCCCCCCC.F[B-](F)(F)F: the activity coefficient turned out to be 1.27 ± 0.13 (308 K), 1.2 ± 0.12 (323 K), 1.13 ± 0.12 (338 K) and 1.26 ± 0.13 (353 K).
For `C=CCCC` [1-pentene] + CCCCCCCCCC[N+](C)(C)CCCCCCCCCC.[O-][Cl+3]([O-])([O-])[O-], the activity coefficient is 1.88 ± 0.2 (308 K), 1.56 ± 0.16 (323 K), 1.37 ± 0.14 (338 K) and 1.31 ± 0.13 (353 K).
Consider `C/C=C(\C)CC` [(E)-3-methyl-2-pentene] + CCCCCCCCCC[N+](C)(C)CCCCCCCCCC.F[B-](F)(F)F, for which the activity coefficient (323 K) was 1.71 ± 0.18, the activity coefficient (338 K) came out at 1.3 ± 0.13 and the activity coefficient (353 K) was 1.43 ± 0.15.
The corresponding values for `C/C=C(\C)CC` [(E)-3-methyl-2-pentene] + CCCCCCCCCC[N+](C)(C)CCCCCCCCCC.[O-][Cl+3]([O-])([O-])[O-] are 1.48 ± 0.15, 1.49 ± 0.15 and 1.32 ± 0.14.
On to `C/C=C/C(C)C` [(E)-4-methyl-2-pentene] + CCCCCCCCCC[N+](C)(C)CCCCCCCCCC.F[B-](F)(F)F, for which the activity coefficient (323 K) came out at 1.68 ± 0.17, the activity coefficient (338 K) was determined as 1.45 ± 0.15 and the activity coefficient (353 K) is 1.57 ± 0.16.
As to `C/C=C/C(C)C` [(E)-4-methyl-2-pentene] + CCCCCCCCCC[N+](C)(C)CCCCCCCCCC.[O-][Cl+3]([O-])([O-])[O-], the activity coefficient by setting is: (323 K) 1.68 ± 0.17; (338 K) 1.72 ± 0.18; (353 K) 1.46 ± 0.15.
The like results for `CC(C)=O` [acetone] + CCCCCCCCCC[N+](C)(C)CCCCCCCCCC.F[B-](F)(F)F were, in that order, 0.991 ± 0.1, 0.833 ± 0.086 and 0.86 ± 0.088.
With `CC(C)=O` [acetone] + CCCCCCCCCC[N+](C)(C)CCCCCCCCCC.[O-][Cl+3]([O-])([O-])[O-], the activity coefficient by setting is: (323 K) 0.489 ± 0.054; (338 K) 0.537 ± 0.058; (353 K) 0.527 ± 0.057.
For `CC#N` [acetonitrile] + CCCCCCCCCC[N+](C)(C)CCCCCCCCCC.F[B-](F)(F)F, the activity coefficient is, setting by setting: (323 K) 1.21 ± 0.12; (338 K) 1.06 ± 0.11; (353 K) 1.24 ± 0.13.
The corresponding values for `CC#N` [acetonitrile] + CCCCCCCCCC[N+](C)(C)CCCCCCCCCC.[O-][Cl+3]([O-])([O-])[O-] are 0.543 ± 0.059, 0.511 ± 0.056 and 0.46 ± 0.052.
Turning to `c1ccccc1` [benzene] + CCCCCCCCCC[N+](C)(C)CCCCCCCCCC.F[B-](F)(F)F, the activity coefficient (323 K) was 0.499 ± 0.055, the activity coefficient (338 K) is 0.519 ± 0.057 and the activity coefficient (353 K) was 0.667 ± 0.07.
The corresponding values for `c1ccccc1` [benzene] + CCCCCCCCCC[N+](C)(C)CCCCCCCCCC.[O-][Cl+3]([O-])([O-])[O-] are 0.499 ± 0.055, 0.59 ± 0.063 and 0.527 ± 0.057.
In the case of `CCCC` [butane] + CCCCCCCCCC[N+](C)(C)CCCCCCCCCC.F[B-](F)(F)F, the activity coefficient by setting is: (308 K) 1.21 ± 0.12; (323 K) 1.12 ± 0.12; (338 K) 1.04 ± 0.1; (353 K) 0.939 ± 0.096.
On to `CCCC` [butane] + CCCCCCCCCC[N+](C)(C)CCCCCCCCCC.[O-][Cl+3]([O-])([O-])[O-], for which the activity coefficient (308 K) was found to be 1.36 ± 0.14, the activity coefficient (323 K) was 1.32 ± 0.14, the activity coefficient (338 K) is 1.28 ± 0.13 and the activity coefficient (353 K) came to 1.24 ± 0.13.
On to `CCC(C)=O` [butanone] + CCCCCCCCCC[N+](C)(C)CCCCCCCCCC.F[B-](F)(F)F, for which the activity coefficient by setting is: (323 K) 1.07 ± 0.11; (338 K) 0.903 ± 0.092; (353 K) 0.82 ± 0.084.
As to `CCC(C)=O` [butanone] + CCCCCCCCCC[N+](C)(C)CCCCCCCCCC.[O-][Cl+3]([O-])([O-])[O-], the activity coefficient runs as follows: (323 K) 0.532 ± 0.058; (338 K) 0.59 ± 0.063; (353 K) 0.585 ± 0.063.
`C1CCCCCC1` [cycloheptane] + CCCCCCCCCC[N+](C)(C)CCCCCCCCCC.F[B-](F)(F)F: the activity coefficient by setting is: (308 K) 1.65 ± 0.17; (323 K) 1.61 ± 0.17; (338 K) 1.57 ± 0.16; (353 K) 1.98 ± 0.21.
Regarding `C1CCCCCC1` [cycloheptane] + CCCCCCCCCC[N+](C)(C)CCCCCCCCCC.[O-][Cl+3]([O-])([O-])[O-], the activity coefficient is, setting by setting: (308 K) 2.29 ± 0.24; (323 K) 2.04 ± 0.21; (338 K) 1.91 ± 0.2; (353 K) 1.78 ± 0.19.
Turning to `C1CCCCC1` [cyclohexane] + CCCCCCCCCC[N+](C)(C)CCCCCCCCCC.F[B-](F)(F)F, the activity coefficient by setting is: (308 K) 1.47 ± 0.15; (323 K) 1.43 ± 0.15; (338 K) 1.4 ± 0.14; (353 K) 1.73 ± 0.18.
The like results for `C1CCCCC1` [cyclohexane] + CCCCCCCCCC[N+](C)(C)CCCCCCCCCC.[O-][Cl+3]([O-])([O-])[O-] were, in that order, 2.05 ± 0.21, 1.78 ± 0.19, 1.66 ± 0.17 and 1.54 ± 0.16.
As for `O=C1CCCCC1` [cyclohexanone] + CCCCCCCCCC[N+](C)(C)CCCCCCCCCC.F[B-](F)(F)F, the activity coefficient is 9.47 ± 1 (323 K), 7.99 ± 0.84 (338 K) and 9.05 ± 0.95 (353 K).
The like results for `O=C1CCCCC1` [cyclohexanone] + CCCCCCCCCC[N+](C)(C)CCCCCCCCCC.[O-][Cl+3]([O-])([O-])[O-] were, in that order, 11.7 ± 1.2, 9.68 ± 1 and 8.46 ± 0.89.
Regarding `C1CCCC1` [cyclopentane] + CCCCCCCCCC[N+](C)(C)CCCCCCCCCC.F[B-](F)(F)F, the activity coefficient reads like this: (308 K) 1.21 ± 0.12; (323 K) 1.17 ± 0.12; (338 K) 1.13 ± 0.12; (353 K) 1.28 ± 0.13.
The corresponding values for `C1CCCC1` [cyclopentane] + CCCCCCCCCC[N+](C)(C)CCCCCCCCCC.[O-][Cl+3]([O-])([O-])[O-] are 1.48 ± 0.15, 1.16 ± 0.12, 1.26 ± 0.13 and 1.19 ± 0.12.
For the molecule `CCOCC` [diethyl ether] + CCCCCCCCCC[N+](C)(C)CCCCCCCCCC.F[B-](F)(F)F, the activity coefficient is, setting by setting: (323 K) 1.08 ± 0.11; (338 K) 0.769 ± 0.08; (353 K) 0.79 ± 0.081.
The like results for `CCOCC` [diethyl ether] + CCCCCCCCCC[N+](C)(C)CCCCCCCCCC.[O-][Cl+3]([O-])([O-])[O-] were, in that order, 1.03 ± 0.1, 0.848 ± 0.087 and 0.74 ± 0.077.
With `CCO` [ethanol] + CCCCCCCCCC[N+](C)(C)CCCCCCCCCC.F[B-](F)(F)F, the activity coefficient by setting is: (308 K) 0.539 ± 0.058; (323 K) 0.469 ± 0.052; (338 K) 0.408 ± 0.047; (353 K) 0.422 ± 0.048.
The like results for `CCO` [ethanol] + CCCCCCCCCC[N+](C)(C)CCCCCCCCCC.[O-][Cl+3]([O-])([O-])[O-] were, in that order, 0.623 ± 0.066, 0.497 ± 0.055, 0.582 ± 0.062 and 0.531 ± 0.058.
For `CCCCCCC` [heptane] + CCCCCCCCCC[N+](C)(C)CCCCCCCCCC.F[B-](F)(F)F, the activity coefficient (308 K) worked out at 3.53 ± 0.37, the activity coefficient (323 K) is 3.04 ± 0.32, the activity coefficient (338 K) came out at 2.62 ± 0.28 and the activity coefficient (353 K) came to 2.48 ± 0.26.
